The values that follow come from patent US20030125352A1, “Therapeutic tropane compounds” (priority 2001, published 2003).

Read-outs that look alike come from different tables or passages of the source. Some results are limits rather than exact numbers.

One assay concerns the target T1, dopamine transporter (Macaca fascicularis, UniProt Q9GJT6).
T1 construct: The caudate-putamen was dissected from coronal slices and yielded 1.4±0.4 g tissue; Membranes were prepared as described previously; from tissue; host or cells: caudate-putamen membranes of adult cynomolgus and rhesus monkeys
The assay can be described thus: Dopamine transporter assay: inhibition of {3H}WIN 35,428 binding in caudate-putamen membranes. Also on record: species or system rhesus or cynomolgus monkey. The following applies: for SERT/DAT: selectivity ratio of IC50 values; for IC50: {3H}WIN 35,428 binding, monkey caudate-putamen.

The next assay addresses T2, serotonin transporter (Macaca mulatta, UniProt Q9MYX0).
T2 construct: The serotonin transporter was assayed in caudate-putamen membranes using conditions similar to those for the dopamine transporter; from tissue; host or cells: caudate-putamen membranes of adult cynomolgus and rhesus monkeys
In words: Serotonin transporter assay: inhibition of {3H}citalopram binding in caudate-putamen membranes. On the set-up: species or system rhesus or cynomolgus monkey.

For another assay, the system named is DAT. The note with it: literature value, cited from earlier work; for IC50: binding to the DAT.
The mark [1] stands for this setting: Table 2, monkey caudate-putamen, read-out: IC50 (nM) SERT.
Where [2] appears, read: Table 2, read-out: IC50 (nM) DAT.
The mark [3] stands for this setting: IC50 (nM) SERT, Table 2, monkey caudate-putamen.

T2 sequence (Q9MYX0 whole entry): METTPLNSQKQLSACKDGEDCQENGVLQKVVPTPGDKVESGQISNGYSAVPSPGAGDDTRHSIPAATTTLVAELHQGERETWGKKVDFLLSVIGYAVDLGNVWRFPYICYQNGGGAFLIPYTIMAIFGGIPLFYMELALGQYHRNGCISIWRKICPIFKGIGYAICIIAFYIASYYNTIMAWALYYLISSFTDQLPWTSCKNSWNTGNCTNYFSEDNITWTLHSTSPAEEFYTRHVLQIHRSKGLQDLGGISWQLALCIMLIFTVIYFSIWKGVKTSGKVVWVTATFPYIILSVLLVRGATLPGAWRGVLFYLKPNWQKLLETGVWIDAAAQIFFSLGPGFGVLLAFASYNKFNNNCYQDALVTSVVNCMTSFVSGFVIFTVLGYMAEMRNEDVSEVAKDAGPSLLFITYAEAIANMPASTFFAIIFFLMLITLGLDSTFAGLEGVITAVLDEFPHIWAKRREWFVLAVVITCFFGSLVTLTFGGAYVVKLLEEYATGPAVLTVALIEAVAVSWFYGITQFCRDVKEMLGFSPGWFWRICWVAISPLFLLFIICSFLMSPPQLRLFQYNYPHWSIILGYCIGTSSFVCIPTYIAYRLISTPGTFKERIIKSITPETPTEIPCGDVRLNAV
T1 sequence (Q9GJT6 whole entry): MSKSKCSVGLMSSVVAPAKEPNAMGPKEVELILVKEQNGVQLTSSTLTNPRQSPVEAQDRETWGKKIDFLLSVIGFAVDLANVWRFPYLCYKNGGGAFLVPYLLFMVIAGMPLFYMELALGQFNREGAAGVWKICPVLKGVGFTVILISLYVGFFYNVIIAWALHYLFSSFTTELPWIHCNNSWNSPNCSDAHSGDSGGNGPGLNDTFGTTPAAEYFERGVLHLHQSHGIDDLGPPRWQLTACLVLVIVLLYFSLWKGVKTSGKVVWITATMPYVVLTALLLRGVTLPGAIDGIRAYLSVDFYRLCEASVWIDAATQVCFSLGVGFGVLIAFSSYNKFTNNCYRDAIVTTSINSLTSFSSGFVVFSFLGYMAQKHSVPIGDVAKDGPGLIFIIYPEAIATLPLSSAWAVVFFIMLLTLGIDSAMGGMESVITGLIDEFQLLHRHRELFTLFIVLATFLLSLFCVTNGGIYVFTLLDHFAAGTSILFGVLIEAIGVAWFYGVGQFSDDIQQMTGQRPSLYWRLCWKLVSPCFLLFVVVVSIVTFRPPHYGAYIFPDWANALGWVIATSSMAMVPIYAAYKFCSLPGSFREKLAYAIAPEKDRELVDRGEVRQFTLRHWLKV

`COC(=O)C1C(c2ccc3ccccc3c2)CC2CC(O)C1N2C` (stereo not drawn) [Compound 18b, 2β-Carbomethoxy-3α-(2-naphthyl)-7β-hydroxy-8-methyl-8-azabicyclo{3.2.1}octane]: the SERT/DAT at dopamine transporter (Table 2) is given as 34. Besides, the 50% inhibitory concentration (IC50) (as a rule, the concentration at which inhibition is half-maximal) at serotonin transporter (setting [1]) is 94 nM.

With `COC(=O)[C@@H]1[C@H]2[C@H](O)C[C@@H](C[C@H]1c1ccc(F)cc1)N2C` [Compound 18c, 2β-Carbomethoxy-3α-(4-fluorophenyl)-7β-hydroxy-8-methyl-8-azabicyclo{3.2.1}octane], the SERT/DAT at dopamine transporter (Table 2) was over 120. The 50% inhibitory concentration (IC50) on dopamine transporter (setting [2]) was 110 nM; at serotonin transporter (setting [1]), over 20000 nM.

As to `COC(=O)[C@@H]1[C@H]2C[C@H](O)[C@@H](C[C@H]1c1ccccc1)N2C` (relative stereo) [Compound 17d, 2β-Carbomethoxy-3α-phenyl-6β-hydroxy-8-methyl-8-azabicyclo{3.2.1}octane], the IC50 on dopamine transporter (IC50 (nM) DAT, Table 2) is 3530 nM; at serotonin transporter (setting [3]), over 10000 nM. Besides, on dopamine transporter (Table 2), the SERT/DAT is recorded as over 3.

Consider `CCC(=O)C1C(c2ccc(Cl)c(Cl)c2)CC2CC(O)C1N2C` (stereo not drawn) [Compound 26, 1-{3α-(3,4-Dichlorophenyl)-7β-hydroxy-8-methyl-8-azabicyclo{3.2.1}oct-2-yl}propan-1-one], for which the concentration for half-maximal inhibition (IC50) at dopamine transporter (Table 1, read-out: IC50 (nM) DAT) was determined as 1.1 nM; at serotonin transporter (Table 1, monkey caudate-putamen, read-out: IC50 (nM) SERT), 2520 nM.

In the case of `COC(=O)[C@@H]1[C@H]2CC[C@@H](C[C@H]1c1ccc(F)cc1)N2C` (relative stereo) [Compound 16c], the IC50 on dopamine transporter (IC50 (nM) DAT, Table 2) worked out at 17.9 nM; on serotonin transporter (setting [3]), 1130 nM. In addition, at dopamine transporter (Table 2), the SERT/DAT was 63.

Consider `COC(=O)[C@@H]1[C@H]2[C@H](O)C[C@@H](C[C@H]1c1ccc(Cl)c(Cl)c1)N2C` (relative stereo) [Compound 18a, 2β-Carbomethoxy-3α(3,4-dichlorophenyl)-7β-hydroxy-8-methyl-8-azabicyclo{3.2.1}octane], for which the IC50 at dopamine transporter (IC50 (nM) DAT, Table 2) amounted to 1.19 nM; on serotonin transporter (setting [3]) it was 1390 nM. In addition, on dopamine transporter (Table 2), the SERT/DAT is listed as 1,170.

Turning to `COC(=O)[C@@H]1[C@H]2CC[C@@H](C[C@H]1c1ccc(Cl)c(Cl)c1)N2C` [Compound 16a], the concentration for half-maximal inhibition (IC50) is 0.38 nM at dopamine transporter (IC50 (nM) DAT, Table 2) and 27.7 nM on serotonin transporter (setting [3]). Also, the SERT/DAT on dopamine transporter (Table 2) was 73.

Turning to `COC(=O)C1C(c2ccc3ccccc3c2)CC2C(O)CC1N2C` (stereo not drawn) [Compound 17b, 2β-Carbomethoxy-3α-(2-naphthyl)-6β-hydroxy-8-methyl-8-azabicyclo{3.2.1}octane], the SERT/DAT on dopamine transporter (Table 2) stood at 6. For the same molecule, the figures for the half-inhibitory concentration (IC50) on dopamine transporter (setting [2]) and on serotonin transporter (setting [1]) were 32 nM and 180 nM, respectively.

`COC(=O)[C@@H]1[C@H]2C[C@H](O)[C@@H](C[C@H]1c1ccc(F)cc1)N2C` (relative stereo) [Compound 17c, 2βCarbomethoxy-3α-(4-fluorophenyl)-6β-hydroxy-8-methyl-8-azabicyclo{3.2.1}octane]: the IC50 at dopamine transporter (IC50 (nM) DAT, Table 2) was 739 nM; at serotonin transporter (setting [3]), 5820 nM. For the same molecule, the SERT/DAT at dopamine transporter (Table 2) is on record as 8.

For the molecule `COC(=O)[C@H]1[C@@H](OC(=O)c2ccccc2)C[C@@H]2CC[C@H]1N2C` [(1R)-(−)-cocaine], in the assay on DAT, the “binds at the dopamine transporter more potently than (1S)-(+)-cocaine” value was “about 200 fold”.

Turning to `COC(=O)[C@@H]1[C@H]2C[C@H](O)[C@@H](C[C@H]1c1ccc(Cl)c(Cl)c1)N2C` (relative stereo) [Compound 17a, 2β-Carbomethoxy-3α-(3,4-dichlorophenyl) -6β-hydroxy-8-methyl-8-azabicyclo{3.2.1}octane], the IC50 was found to be 6.09 nM at dopamine transporter (IC50 (nM) DAT, Table 2) and 1450 nM on serotonin transporter (setting [3]). The SERT/DAT on dopamine transporter (Table 2) was determined as 238.

Take `COC(=O)C1C(c2ccc(F)cc2)CC2CCC1N2C` (stereo not drawn) [WIN 35,428, 2-carbomethoxy-3-(4-fluorophenyl)-N-methyltropane]: the IC50 in the assay with DAT was […].

For `COC(=O)C1C(c2ccc(Cl)c(Cl)c2)CC2CC(O)C1N2C` (single isomer, unassigned) [(1R)-18a], the IC50 turned out to be 482 nM on dopamine transporter (IC50 (nM) DAT, Table 2) and 5300 nM on serotonin transporter (setting [3]). Besides, the SERT/DAT at dopamine transporter (Table 2) is on record as 11.

As to `COC(=O)[C@@H]1[C@H]2[C@H](O)C[C@@H](C[C@H]1c1ccccc1)N2C` (relative stereo) [Compound 18d, 2β-Carbomethoxy-3α-phenyl-7β-hydroxy-8-methyl-8-azabicyclo{3.2.1}octane], the IC50 at dopamine transporter (IC50 (nM) DAT, Table 2) was 518 nM; on serotonin transporter (setting [3]), over 100000 nM. Further, the SERT/DAT on dopamine transporter (Table 2) was over 190.

With `COC(=O)C1C(c2ccc(Cl)c(Cl)c2)CC2CCC1N2C` (stereo not drawn) [Compound O-401, 2-carbomethoxy-3-(3,4-dichlorophenyl)-N -methyltropane], the IC50 with DAT is 1.09 nM.

For `COC(=O)C1C(c2ccc(Cl)c(Cl)c2)CC2CC(O)C1N2C` (single isomer, unassigned) [(1S)-18a], the IC50 came out at 0.76 nM on dopamine transporter (IC50 (nM) DAT, Table 2) and 1220 nM at serotonin transporter (setting [3]).
